Among the data in patent publication US12441730B2, “PRMT5 inhibitors” (Merck Sharp & Dohme LLC, priority 2019, dated 2025) are EC50 values, retold here.

Read-outs that look alike come from different tables or passages of the source.

In assay [1] the target is T1, Full-length (FL)-PRMT5-MEP50 enzyme complex (Homo sapiens, UniProt O14744).
T1 construct: Full-length (FL)-PRMT5-MEP50 enzyme complex (recombinant proteins from baculovirus-transfected Sf21 cells: FL-PRMT5; MW=73837 kDa and FL-MEP50; MW=38614); made in house; host or cells: baculovirus-transfected Sf21 cells
In words: PRMT5-MEP50 Enzyme Methylation Assay (Version B). The format is biochemical. On the procedure:
PRMT5-MEP50 Enzyme Methylation Assay (Version B)
PRMT5/MEP50 biochemical assay is a direct measurement of the methylation activity of the enzyme complex on a short peptide substrate derived from the N-terminus of H4 histone. Methylation experiment was performed with recombinant protein. The assessment of inhibitory effect (IC50) of small molecules was measured by the effectiveness of the compounds to inhibit this reaction.
In this assay, the potency (IC50) of each compound was determined from a twenty-point (1:2 serial dilution; top compound concentration of 100000 nM) titration curve using the following outlined procedure. To each well of a white ProxiPlus 384 well-plate, 100 nL of compound (1% DMSO in final assay volume of 10 μL) was dispensed, followed by the addition of 8 μL of 1× assay buffer (50 mM Bicine pH 8.0, 1 mM DTT, 0.004% Tween20, 0.01% BSA) containing 0.5 nM of Full-length (FL)-PRMT5-MEP50 enzyme complex (recombinant proteins from baculovirus-transfected Sf21 cells: FL-PRMT5; MW=[…] and FL-MEP50; MW=38614). Plates were sealed and placed in a 37° C. humidified chamber for 30 minutes pre-incubation with compounds. Subsequently, each reaction was initiated by the addition of 2 μL 1× assay buffer containing 75 nM biotinylated H4R3 (Me1) peptide, and 15 μM S-(5′-Adenosyl)-L-Methionine Chloride (SAM). The final reaction in each well of 10 μL consists of 0.5 nM PRMT5-MEP50, 75 nM biotinylated-peptide, and 15 μM SAM. Methylation reactions were allowed to proceed for 150 minutes in a sealed plate at 37° C. Reactions were immediately quenched by the addition of 1 μL of 10% formic acid. Plates were then frozen and shipped to SAMDI™ Tech Inc. to determine the percent conversion from […]. EC50 values were determined by non-linear regression according to models for either sigmoidal (4 parameters) or biphasic (7 parameters) dose-response curves.

In assay [2] the test system is symmetric dimethylation of arginine (SDMA) of PRMT5 substrates in MCF-7 cells. In words: PRMT5 Cell Target Engagement (TE) Assay. It is filed as cell-based. The settings on record: 3 days treatment, SDMA high content imaging. In outline: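 MCF-7 cells treated 3 days at 37 °C with a ten-point 1:3 titration from 10000 nM. Fixed cells immunostained with anti-SDMA and Alexa488 secondary; nuclear fluorescence quantified by high-content imaging versus DMSO wells, with IC50 from a 4-parameter fit.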

The mark [3] stands for this setting: second value of 7 parameter biphasic fit, read-out: Enzyme Methylation Assay Version B (EC50 2).
Setting [4] is: single EC50 = 4 parameter single site sigmoidal fit, EC50 1 = first value of 7 parameter biphasic fit, read-out: Enzyme Methylation Assay Version B (EC50 or EC50 1).

T1 sequence (O14744 whole entry): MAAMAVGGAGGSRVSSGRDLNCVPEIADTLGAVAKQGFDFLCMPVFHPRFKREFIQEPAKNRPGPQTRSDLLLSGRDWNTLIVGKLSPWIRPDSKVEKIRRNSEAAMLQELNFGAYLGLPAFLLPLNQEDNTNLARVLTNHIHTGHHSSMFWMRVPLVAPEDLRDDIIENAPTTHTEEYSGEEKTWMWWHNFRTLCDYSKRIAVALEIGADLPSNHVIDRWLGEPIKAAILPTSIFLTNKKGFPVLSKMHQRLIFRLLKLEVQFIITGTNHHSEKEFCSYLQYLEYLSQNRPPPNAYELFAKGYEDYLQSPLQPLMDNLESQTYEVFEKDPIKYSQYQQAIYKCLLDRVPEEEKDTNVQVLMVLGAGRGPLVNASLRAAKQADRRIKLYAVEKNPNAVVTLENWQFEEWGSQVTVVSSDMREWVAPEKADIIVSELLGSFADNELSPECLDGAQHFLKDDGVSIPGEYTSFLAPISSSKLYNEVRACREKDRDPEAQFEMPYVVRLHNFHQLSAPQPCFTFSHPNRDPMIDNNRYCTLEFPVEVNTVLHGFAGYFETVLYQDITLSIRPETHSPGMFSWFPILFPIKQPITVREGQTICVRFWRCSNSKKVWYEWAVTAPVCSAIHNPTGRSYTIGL
T1 sequence (Q9BQA1 whole entry partner): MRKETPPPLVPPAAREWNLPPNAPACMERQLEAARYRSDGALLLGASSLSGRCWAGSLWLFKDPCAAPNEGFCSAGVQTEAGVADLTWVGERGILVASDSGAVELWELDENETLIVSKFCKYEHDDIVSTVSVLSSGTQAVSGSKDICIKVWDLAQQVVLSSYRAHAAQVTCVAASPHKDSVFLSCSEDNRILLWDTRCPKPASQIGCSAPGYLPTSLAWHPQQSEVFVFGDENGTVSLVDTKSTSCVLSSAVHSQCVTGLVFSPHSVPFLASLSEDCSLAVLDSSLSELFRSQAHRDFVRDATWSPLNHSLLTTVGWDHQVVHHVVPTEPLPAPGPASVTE

A word on the EC50: it is the midpoint of the concentration-response curve. For the molecule `O=C(c1ccc(C(=O)N2C3CCC2COC3)cc1)N1CCC2(Cc3ccccc3CN2)C(O)C1` (single isomer, unassigned) [Example 150, (3′-hydroxy-1,4-dihydro-1′H,2H-spiro[isoquinoline-3,4′-piperidin]-1′-yl)[4-(3-oxa-8-azabicyclo[3.2.1]oct-8-ylcarbonyl)phenyl]methanone], the EC50 in assay [1] (setting [3]) is 1840 nM; in assay [1] (setting [4]), 5.61 nM; in assay [2], 246 nM.
For the molecule `O=C(c1ccc(C(=O)N2C3CCC2COC3)cc1)N1CCC2(Cc3ccccc3CN2)C(O)C1` (single isomer, unassigned) [Example 151, (3′-hydroxy-1,4-dihydro-1′H,2H-spiro[isoquinoline-3,4′-piperidin]-1′-yl)[4-(3-oxa-8-azabicyclo[3.2.1]oct-8-ylcarbonyl)phenyl]methanone], the EC50 in assay [1] (setting [4]) amounted to 882 nM; in assay [2], 4180 nM.
As for `O=C(c1ccc(C(=O)N2C3CCC2COC3)cc1)N1CCC2(Cc3ccccc3CN2)C(O)C1` (single isomer, unassigned) [Example 152, (3′-hydroxy-1,4-dihydro-1′H,2H-spiro[isoquinoline-3,4′-piperidin]-1′-yl)[4-(3-oxa-8-azabicyclo[3.2.1]oct-8-ylcarbonyl)phenyl]methanone], the EC50 in assay [1] (setting [3]) amounted to 335 nM; in assay [1] (setting [4]), 1.2 nM; in assay [2], 27.7 nM.
Turning to `CC(=O)N1CCC(Nc2cc(C(=O)N3CC[C@]4(Cc5ccccc5CN4)[C@H](O)C3)c(Cl)cn2)CC1` [Example 4, 11-(4-((5-chloro-4-((3R,3’R)-3′-hydroxy-1,4-dihydro-2H-spiro[isoquinoline-3,4′-piperidine]-1′-carbonyl)pyridin-2-yl)amino)piperidin-1-yl)ethan-1-one], the EC50 in assay [1] (setting [3]) turned out to be 1530 nM; in assay [1] (setting [4]), 2.63 nM; in assay [2] (Homo sapiens, MCF7, 72 h), 55.9 nM.
As for `CC(=O)N1CCC(Nc2cc(C(=O)N3CC[C@]4(Cc5ccccc5CN4)[C@H](O)C3)c(F)cn2)CC1` [Example 5, 1-(4-((5-fluoro-4-((3R,3’R)-3′-hydroxy-1,4-dihydro-2H-spiro[isoquinoline-3,4′-piperidine]-1′-carbonyl)pyridin-2-yl)amino)piperidin-1-yl)ethan-1-one], the EC50 in assay [1] (setting [3]) was 1110 nM; in assay [1] (setting [4]), 5.18 nM; in assay [2] (Homo sapiens, MCF7, 72 h), 38.6 nM.
On to `CCOc1cc(C(=O)N2C3CCC2COC3)ccc1C(=O)N1CCC2(CC1)Cc1ccc(Cl)cc1CN2` [Example 52, [4-(7-chloro-1,4-dihydro-1H,2H-spiro[isoquinoline-3,4′-piperidine]-1′-carbonyl)-3-ethoxyphenyl](3-oxa-8-azabicyclo[3.2.l]octan-8-yl)methanone], for which the EC50 in assay [1] (setting [3]) came out at 2250 nM; in assay [1] (setting [4]), 6.71 nM; in assay [2] (Homo sapiens, MCF7, 72 h) it was 87.7 nM.
Taken in the same sequence, the figures for `CC(=O)N1CCC(Nc2cc(C(=O)N3CCC4(CC3)Cc3ccc(Cl)cc3CN4)ncn2)CC1` [Example 53, 1-(4-{[6-(7-chloro-1,4-dihydro-1′H,2H-spiro[isoquinoline-3,4′-piperidine]-1′-carbonyl)pyrimidin-4-yl]amino}piperidin-1-yl)ethan-1-one] were 5550 nM, 6.21 nM and 488 nM.
Taken in the same sequence, the figures for `O=C(c1ccc(-c2ncnn2C2CC2)cc1Cl)N1CC[C@]2(Cc3ccccc3CN2)[C@H](O)C1` [Example 110, (2-chloro-4-(1-cyclopropyl-1H-1,2,4-triazol-5-yl)phenyl)((3R,3′R)-3′-hydroxy-1,4-dihydro-2H-spiro[isoquinoline-3,4′-piperidin]-1′-yl)methanone] were 8710 nM, 3.31 nM and 53 nM.
Regarding `CCOc1nc(Cl)ccc1C(=O)N1CCC2(CC1)Cc1ccccc1CN2` [Example 114, (6-chloro-2-ethoxypyridin-3-yl)(1,4-dihydro-1′H,2H-spiro[isoquinoline-3,4′-piperidin]-1′-yl)methanone], the EC50 in assay [1] (setting [3]) turned out to be 15000 nM; in assay [1] (setting [4]) it was 15.1 nM; in assay [2] (Homo sapiens, MCF7, 72 h), 7550 nM.
Taken in the same sequence, the figures for `CCOc1nc(C(F)(F)F)ccc1C(=O)N1CCC2(CC1)Cc1ccccc1CN2` [Example 115, (1,4-dihydro-1′H,2H-spiro[isoquinoline-3,4′-piperidin]-1′-yl)[2-ethoxy-6-(trifluoromethyl)pyridin-3-yl]methanone] were 55000 nM, 86.3 nM and not below 10000 nM.
For `O=C(c1ccc(C(F)(F)F)nc1Cl)N1CCC2(CC1)Cc1ccccc1CN2` [Example 116, [2-chloro-6-(trifluoromethyl)pyridin-3-yl](1,4-dihydro-1′H,2H-spiro[isoquinoline-3,4′-piperidin]-1′-yl)methanone], in that order: not below 100000 nM, 807 nM and not below 10000 nM.
As for `Cn1ncnc1-c1ccc(C(=O)N2CCC3(CC2)Cc2ccccc2CN3)cc1` [Example 117, (1,4-dihydro-1′H,2H-spiro[isoquinoline-3,4′-piperidin]-1′-yl)[4-(1-methyl-1H-1,2,4-triazol-5-yl)phenyl]methanone], the EC50 in assay [1] (setting [3]) is not below 100000 nM; in assay [1] (setting [4]) it was 690 nM; in assay [2] (Homo sapiens, MCF7, 72 h) it was not below 10000 nM.
Take `O=C(c1ccc(-c2nnc(C3CC3)o2)cc1)N1CCC2(CC1)Cc1ccccc1CN2` [Example 118, [4-(5-cyclopropyl-1,3,4-oxadiazol-2-yl)phenyl](1,4-dihydro-1′H,2H-spiro[isoquinoline-3,4′-piperidin]-1′-yl)methanone]: the EC50 is not below 100000 nM in assay [1] (setting [3]); 510 nM in assay [1] (setting [4]); not below 10000 nM in assay [2] (Homo sapiens, MCF7, 72 h).
For `CCOc1cc(C(=O)N2C3CCC2COC3)ccc1C(=O)N1CCC2(CC1)Cc1ccccc1CN2` [Example 172, (4-(3-oxa-8-azabicyclo[3.2.1]octane-8-carbonyl)-2-ethoxyphenyl)(1,4-dihydro-2H-spiro[isoquinoline-3,4′-piperidin]-1′-yl)methanone], the EC50 in assay [1] (setting [3]) was 1940 nM; in assay [1] (setting [4]) it was 5.42 nM; in assay [2] (Homo sapiens, MCF7, 72 h) it was 88.9 nM.
Consider `O=C(c1ccc(C(=O)N2C3CCC2COC3)cc1)N1CCC2(CC1)Cc1ccccc1CN2` [Example 173, (4-(3-oxa-8-azabicyclo[3.2.1]octane-8-carbonyl)phenyl)(1,4-dihydro-2H-spiro[isoquinoline-3,4′-piperidin]-1′-yl)methanone], for which the EC50 was 14400 nM in assay [1] (setting [3]); 32.3 nM in assay [1] (setting [4]); 5310 nM in assay [2] (Homo sapiens, MCF7, 72 h).
With `CC(=O)N1CCC(Nc2cc(C(=O)N3CCC4(CC3)Cc3ccccc3CN4)ccn2)CC1` [Example 174, 1-(4-((4-(1,4-dihydro-2H-spiro[isoquinoline-3,4′-piperidine]-1′-carbonyl)pyridin-2-yl)amino)piperidin-1-yl)ethan-1-one], the EC50 in assay [1] (setting [3]) came to 8840 nM; in assay [1] (setting [4]), 13.3 nM; in assay [2] (Homo sapiens, MCF7, 72 h), 797 nM.
In the case of `[2H]C1([2H])NC2(CCN(C(=O)c3ccc(C(=O)N4C5CCC4COC5)cc3OCC)CC2)Cc2ccccc21` [Example 175, (4-(3-oxa-8-azabicyclo[3.2.1]octane-8-carbonyl)-2-ethoxyphenyl)(1,4-dihydro-2H-spiro[isoquinoline-3,4′-piperidin]-1′-yl-1,1-d2)methanone], the EC50 came to 2490 nM in assay [1] (setting [3]); 6.32 nM in assay [1] (setting [4]); 156 nM in assay [2] (Homo sapiens, MCF7, 72 h).
Taken in the same sequence, the figures for `O=C(c1ccc(C(=O)N2C3CCC2COC3)cc1OC1CC1)N1CCC2(CC1)Cc1ccccc1CN2` [Example 176, (4-(3-oxa-8-azabicyclo[3.2.1]octane-8-carbonyl)-2-cyclopropoxyphenyl)(1,4-dihydro-2H-spiro[isoquinoline-3,4′-piperidin]-1′-yl)methanone] were 2860 nM, 11 nM and 253 nM.
